Measurements: patent publication US20260014278A1, “HYBRID PEPTIDE DENDRIMER SYSTEMS AND EXTRAHEPATIC DELIVERY” (NUNTIUS THERAPEUTICS LIMITED, priority 2022, published 2026)

Assay: Dynamic light scattering: hydrodynamic size and polydispersity index (PDI) of nanoparticles
Assay type: physicochemical
Method in brief: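 Hydrodynamic size measured by DLS (Stokes-Einstein), PDI from cumulants fit per ISO 13321/22412. Samples diluted 16× in 25 mM HEPES, water as dispersant, 25° C; PDI measured on dendrimer:nucleic acid 8:1 nanoparticles.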

[1] = GSCG1,2-RHL N:P=0.6:1, DOTMA:DOPE, coated with GSGGSGGSCG1-EEEE, with/without CpG (mRNA:CpG w/w 9:1)
[2] = GSCG1,2-RHL and DOTMA:DOPE nanoparticles, 150 ug/mL mRNA, 40× dilution in 25 mM HEPES buffer
[3] = mRNA, N:P 0.6:1, DOTMA:DOPE w/w 10:1, with or without 3 equivalents G1-EEEE with mannose coating

Substance: (RHL)4(KRHL)2KGSC-NH2 [GSCG1,2-RHL]
- Hydrodynamic size [1]: 174 nm
- PDI [1]: 0.17
- DLS measurement, Pdl [2]: 0.13
- DLS measurement, size [2]: 184 nm
- PDI [3]: 0.1776
- size [3]: 149.5 nm
